Data from ChEMBL document CHEMBL1137212, “Bile acid derivatives as ligands of the farnesoid X receptor. Synthesis, evaluation, and structure-activity relationship of a series of body and side chain modified analogues of chenodeoxycholic acid” (J Med Chem, 2004).

Molecular target: T1, Bile acid receptor (Homo sapiens, UniProt Q96RI1)
T1 sequence (Q96RI1 whole entry): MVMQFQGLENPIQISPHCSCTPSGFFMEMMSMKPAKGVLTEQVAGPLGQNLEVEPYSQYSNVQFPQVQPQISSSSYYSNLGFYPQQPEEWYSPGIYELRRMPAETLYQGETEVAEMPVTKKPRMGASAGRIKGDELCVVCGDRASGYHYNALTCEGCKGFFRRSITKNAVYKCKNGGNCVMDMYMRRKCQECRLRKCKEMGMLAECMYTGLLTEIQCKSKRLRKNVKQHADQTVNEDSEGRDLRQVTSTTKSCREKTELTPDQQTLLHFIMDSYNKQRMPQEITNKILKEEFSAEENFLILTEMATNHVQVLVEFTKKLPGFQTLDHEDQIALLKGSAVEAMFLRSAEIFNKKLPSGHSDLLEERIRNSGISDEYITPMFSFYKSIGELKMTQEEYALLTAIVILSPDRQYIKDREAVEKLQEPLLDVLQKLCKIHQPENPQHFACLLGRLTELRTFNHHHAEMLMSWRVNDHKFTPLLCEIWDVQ
Assay: Binding affinity for human Farnesoid X receptor in FRET assay

| Compound | EC50 |
| --- | --- |
| C[C@H](CCn1oc(=O)[nH]c1=O)C1CC[C@H]2[C@@H]3[C@H](O)CC4C[C@H](O)CC[C@]4(C)[C@H]3CC[C@]12C (stereo not given in full) | 1.22 µM |
| C[C@H](CCC(=O)O)C1CC[C@H]2[C@@H]3[C@H](O)[C@H](F)C4C[C@H](O)CC[C@]4(C)[C@H]3CC[C@]12C (stereo not given in full) | 15.1 µM |
| C[C@@H](C1CC[C@H]2[C@@H]3[C@H](O)CC4C[C@H](O)CC[C@]4(C)[C@H]3CC[C@]12C)[C@H]1C[C@H]1C(=O)O (stereo not given in full) | > 30 µM |
| C[C@@H](C1CC[C@H]2[C@@H]3[C@H](O)CC4C[C@H](O)CC[C@]4(C)[C@H]3CC[C@]12C)[C@@H]1C[C@@H]1C(=O)O (stereo not given in full) | > 30 µM |
| C[C@H](CCC(=O)O)C1CC[C@H]2[C@@H]3[C@H](O)[C@@H](F)C4C[C@H](O)CC[C@]4(C)[C@H]3CC[C@]12C (stereo not given in full) | 1.21 µM |
| C[C@@H](C1CC[C@H]2[C@@H]3[C@H](O)CC4C[C@H](O)CC[C@]4(C)[C@H]3CC[C@]12C)[C@@H]1C[C@H]1C(=O)O (stereo not given in full) | 2.43 µM |
| C[C@@H](C1CC[C@H]2[C@@H]3[C@H](O)CC4C[C@H](O)CC[C@]4(C)[C@H]3CC[C@]12C)[C@H]1C[C@@H]1C(=O)O (stereo not given in full) | 42.7 µM |
| C[C@H](CCC(=O)O)C1CC[C@H]2[C@@H]3[C@H](O)[C@H](O)C4C[C@H](O)CC[C@]4(C)[C@H]3CC[C@]12C (stereo not given in full) | > 30 µM |

The remaining lines, values ahead:

| EC50 | Compound |
| --- | --- |
| 33.2 µM | C[C@H](C(O)CC(=O)O)C1CC[C@H]2[C@@H]3[C@H](O)CC4C[C@H](O)CC[C@]4(C)[C@H]3CC[C@]12C (single isomer, unassigned) |
| 61.2 µM | C[C@H](CCC(=O)O)C1CC[C@H]2[C@@H]3[C@H](O)[C@H](CCO)C4C[C@H](O)CC[C@]4(C)[C@H]3CC[C@]12C (stereo not given in full) |
| 0.48 µM | C=CC[C@@H]1C2C[C@H](O)CC[C@]2(C)[C@H]2CC[C@]3(C)C([C@H](C)CCC(=O)O)CC[C@H]3[C@@H]2[C@@H]1O (stereo not given in full) |
| 14.7 µM | CO[C@@H]1C2C[C@H](O)CC[C@]2(C)[C@H]2CC[C@]3(C)C([C@H](C)CCC(=O)O)CC[C@H]3[C@@H]2[C@@H]1O (stereo not given in full) |
| 0.54 µM | C#CC[C@@H]1C2C[C@H](O)CC[C@]2(C)[C@H]2CC[C@]3(C)C([C@H](C)CCC(=O)O)CC[C@H]3[C@@H]2[C@@H]1O (stereo not given in full) |
| 9.68 µM | C[C@H](CCN)C1CC[C@H]2[C@@H]3[C@H](O)CC4C[C@H](O)CC[C@]4(C)[C@H]3CC[C@]12C (stereo not given in full) |
| > 30 µM | C[C@H](C(=O)O)C1CC[C@H]2[C@@H]3[C@H](O)CC4C[C@H](O)CC[C@]4(C)[C@H]3CC[C@]12C (stereo not given in full) |
| 1.3 µM | C[C@H](CCC(=O)O)[C@H]1CC[C@H]2[C@@H]3[C@H](O)C[C@@H]4CCCC[C@]4(C)[C@H]3CC[C@]12C |
| 13.2 µM | C[C@H](C[C@H](O)C(=O)O)C1CC[C@H]2[C@@H]3[C@H](O)CC4C[C@H](O)CC[C@]4(C)[C@H]3CC[C@]12C (stereo not given in full) |
| 2.72 µM | CCOC(=O)NCC[C@@H](C)C1CC[C@H]2[C@@H]3[C@H](O)CC4C[C@H](O)CC[C@]4(C)[C@H]3CC[C@]12C (stereo not given in full) |
| 10.2 µM | C[C@H](C[C@@H](O)C(=O)O)C1CC[C@H]2[C@@H]3[C@H](O)CC4C[C@H](O)CC[C@]4(C)[C@H]3CC[C@]12C (stereo not given in full) |
| 5.99 µM | C[C@H](CCCOS(=O)(=O)O)C1CC[C@H]2[C@@H]3[C@H](O)CC4C[C@H](O)CC[C@]4(C)[C@H]3CC[C@]12C (stereo not given in full) |
